From patent US20250000847A1, “TREATMENT OF NEURODEGENERATIVE DISEASES WITH HDAC INHIBITORS” (CASE WESTERN RESERVE UNIVERSITY, priority 2021, published 2025)

Columns and labels:
[1] = tested on: very long chain fatty acids (VLCFA); assay: Very long chain fatty acids produced by reactive astrocytes; format: cell-based; details: compared to cells treated with DMSO
[2] = tested on: GBP2+ reactive astrocytes; assay: Lipopolysaccharide (LPS) model of neuroinflammation, GBP2+ reactive astrocytes in brain; format: in vivo, mouse
Description: After which, brain tissue was collected from the mice and processed for in situ hybridization with probes targeting GFAP as a general astrocyte marker, and the reactive astrocyte-specific marker GBP2.
For in vivo studies in situ hybridization was performed using RNAscope Multiplex Fluorescent V2 Assay (ACD Bio, 323136) according to manufacturer's instructions for fixed frozen samples. Briefly, tissue was prepared by first dehydrating with increasingly higher percentages of ethanol, then dried, blocked with hydrogen peroxide, followed by antigen retrieval for 5 minutes, dried again, and then protein was digested using provided Protease III. RNA targeting probes purchased from ACD Bio were then annealed at 40° C. for 2 hrs, followed by washing and a series of amplification steps before finally tagging the RNA with Opal Dye fluorophores (Perkin Elmer). In situ hybridization Images were captured on a Hamamatsu Nanozoomer S60 Slide scanner with NDP 2.0 software. Image analysis was performed using Perkin Elmer Columbus automated software.

[3] = tested on: MHC Class I (H-2Kb) bound to OVA257-264 on reactive astrocytes; assay: OVA257-264 peptide antigen cross presentation assay; format: cell-based, mouse
Description: To test whether HDAC inhibitors block the ability of reactive astrocytes to cross present exogenous antigen, cells were plated down in 96-well plates at a density of about 500 cells/mm^2. Cells were then treated with HDAC inhibitors for 1 hr prior to the addition of reactive astrocyte driving factors as the concentrations stated above. Cells were incubated for 24 hrs, after which, media was washed out and replaced with media containing the peptide fragment ovalbumin 257-264 (OVA257-264). Cells were then incubated overnight, and then stained for 2 hrs at 37° C. with APC-conjugated antibody against MHC Class I (H-2Kb) bound to OVA257-264, then visualized. The percent of H-2Kb positive cells as a percent of total live cells was determined (FIG. 3).
After 24 hours of treatment, these cells were cultured in the presence of the OVA257264 Peptide (GenScript RP10611 or Sigma S7951). After 12 hours, the cells were live-stained for two hours using a conjugated antibody targeted against an OVA257-264 peptide antigen. The cells were then fixed and imaged using the PerkinElmer Operetta CLS High-Content Analysis System.

[4] = Pharmacokinetics, brain tissue; format: in vivo, mouse
Description: Mice were then perfused with saline to remove blood from the brain. Brain tissue was then collected and snap frozen. Brain tissues were thawed at room temperature and homogenized in PBS. Calibration standards and study samples were extracted with 3× volume of acetonitrile containing 0.1% formic acid+200 ng/ml internal standard solution. Samples were then vortexed each for 1 minute and then transferred to an Eppendorf R5417R and centrifuged at 14000 rpm for 7 minutes. Following extraction of tissue homogenate calibrators and study samples were transferred directly to an autosampler microtiter plate for analysis. Samples were analyzed by LC-MS-MS in the positive ion electrospray ionization mode.

[5] = tested on: GBP2+ reactive astrocytes; assay: Primary high-throughput screen, formation of GBP2+ damaging reactive astrocytes; format: cell-based, mouse; details: 2 μM, TNFα, IL-1α, C1q, 24 hours
Description: Specifically, resting astrocytes were first thawed and plated onto 384-well plates at a density of about 500 cells/mm^2. A Perkin Elmer Janus G3 Varispan Automated Workstation was then used to treat cells with candidate small-molecules from a library of 3115 bioactive small-molecules, with one type of small molecule per well, at a concentration of about 2 μM in 384-well plates, followed one hour later by exposing the pre-treated astrocytes with such reactive astrocyte driving factors as IL-1α (3 ng/mL, Sigma #I3901), C1q (400 ng/mL, MyBioSource #MBS143105), and TNFα (30 ng/mL, R&D Systems #210-TA-020). […]
The cells were then imaged using the PerkinElmer Operetta CLS High-Content Analysis System. Images were analyzed using automated PerkinElmer Columbus Image Analysis Software.
Hits were then determined as those compounds that decreased the number of GBP2^+ reactive astrocytes by greater than 80% compared to reactive astrocytes plus DMSO vehicle control wells. […]
For screening, all liquid handling was performed using a BioTek EL406 Washer Dispenser. […] Images were analyzed using automated PerkinElmer Columbus Image Analysis Software. For analysis, toxic chemicals were first removed; a chemical was considered toxic if it decreased the counted number of live cells in the well by greater than 30% compared to reactive astrocytes plus DMSO vehicle control wells. […]

Which results are given for `Nc1cc(F)ccc1NC(=O)/C=C/c1cnn(C/C=C/c2ccccc2)c1` [RGFP966]?
levels of toxic very long chain fatty acids (VLCFA) [1]: decreased levels; percentage of GFAP+ astrocytes expressing GBP2 ([2]; 10 mg/kg i.p. daily plus 5 mg/kg LPS, frontal cortex and corpus callosum, compared to vehicle plus LPS): lower percentage (about half); levels of GBP2+ reactive astrocytes ([2]; chronic treatment prior to LPS challenge, frontal cortex, cerebellum, brainstem, and corpus callosum): decreased levels; ability of reactive astrocytes to cross present antigen on MHC Class I ([3]; FIG. 3): decrease; inhibition of antigen cross-presentation by MHC Class I ([3]; at either 2.5 or 5.0 μM): completely inhibited; concentration in brain tissue ([4]; chronic treatment, 10 mg/kg i.p. daily): equal to the IC50; brain permeance ([4]; mice, 10 mg/kg i.p.): brain permeant; inhibition of the formation of proinflammatory toxic (reactive) astrocytes [5]: robustly inhibit
